According to ChEMBL document CHEMBL5058649, “Data for DCP probe BAY 1816032” (2022):

Legend:
[1] = target: Vasopressin V1a receptor (Homo sapiens) (UniProt P37288); experiment: Vasopressin V1A Eurofins-Panlabs radioligand binding assay; details: Compound concentration 10.0 uM
[2] = target: Cannabinoid receptor 1 (Homo sapiens) (UniProt P21554); details: Compound concentration 10.0 uM
[3] = target: Mitogen-activated protein kinase 15 (Homo sapiens) (UniProt Q8TD08); experiment: ERK8 DiscoveRx kinase panel; details: Compound concentration 1.0 uM
[4] = target: Macrophage-stimulating protein receptor (Homo sapiens) (UniProt Q04912); experiment: MST1R DiscoveRx kinase panel; details: Compound concentration 1.0 uM
[5] = target: GABA-A receptor; anion channel (Rattus norvegicus) (UniProt O09028+P15431+P18506+P18508+P19969+P20236+P23574+P23576+P28471+P28473+P30191+P62813+P63079+P63138+Q91ZM7+Q9ES14); details: Compound concentration 10.0 uM
[6] = target: Serine/threonine-protein kinase Sgk2 (Homo sapiens) (UniProt Q9HBY8); experiment: SGK2 DiscoveRx kinase panel; details: Compound concentration 1.0 uM
[7] = target: Cyclin-dependent kinase 11B (Homo sapiens) (UniProt P21127); experiment: CDC2L1 DiscoveRx kinase panel; details: Compound concentration 1.0 uM
[8] = target: Tyrosine-protein kinase Yes (Homo sapiens) (UniProt P07947); experiment: YES DiscoveRx kinase panel; details: Compound concentration 1.0 uM
[9] = target: Histamine H4 receptor (Homo sapiens) (UniProt Q9H3N8); details: Compound concentration 10.0 uM
[10] = target: G protein-coupled receptor kinase 4 (Homo sapiens) (UniProt P32298); experiment: GRK4 DiscoveRx kinase panel; details: Compound concentration 1.0 uM
[11] = target: 5-hydroxytryptamine receptor 2B (Homo sapiens) (UniProt P41595); details: Compound concentration 10.0 uM
[12] = target: Glutamate receptor ionotropic, kainate (Rattus norvegicus) (UniProt P22756+Q01812+P42260+P42264+Q63273); experiment: Inhibition of Glutamate, Kainate at 10 µM in the Eurofins-Panlabs radioligand binding assay (Eurofins_assay_232700); details: Compound concentration 10.0 uM
[13] = target: Receptor tyrosine-protein kinase erbB-4 (Homo sapiens) (UniProt Q15303); experiment: ERBB4 DiscoveRx kinase panel; details: Compound concentration 1.0 uM
[14] = target: Tyrosine-protein kinase JAK2 (Homo sapiens) (UniProt O60674); experiment: JAK2(JH1domain-catalytic) DiscoveRx kinase panel; details: Compound concentration 1.0 uM
[15] = target: Kappa-type opioid receptor (Homo sapiens) (UniProt P41145); details: Compound concentration 10.0 uM
[16] = target: Ankyrin repeat and protein kinase domain-containing protein 1 (Homo sapiens) (UniProt Q8NFD2); experiment: ANKK1 DiscoveRx kinase panel; details: Compound concentration 1.0 uM
[17] = target: SRSF protein kinase 2 (Homo sapiens) (UniProt P78362); experiment: SRPK2 DiscoveRx kinase panel; details: Compound concentration 1.0 uM
[18] = target: Platelet-activating factor receptor (Homo sapiens) (UniProt P25105); experiment: Inhibition of Platelet Activating Factor (PAF) at 10 µM in the Eurofins-Panlabs radioligand binding assay (Eurofins_assay_265010); details: Compound concentration 10.0 uM
[19] = target: Casein kinase I isoform gamma-3 (Homo sapiens) (UniProt Q9Y6M4); experiment: CSNK1G3 DiscoveRx kinase panel; details: Compound concentration 1.0 uM
[20] = target: Cyclin-dependent kinase 13 (Homo sapiens) (UniProt Q14004); experiment: CDC2L5 DiscoveRx kinase panel; details: Compound concentration 1.0 uM
[21] = target: ALK tyrosine kinase receptor (Homo sapiens) (UniProt Q9UM73); experiment: ALK DiscoveRx kinase panel; details: Compound concentration 1.0 uM
[22] = target: Protein kinase C delta type (Homo sapiens) (UniProt Q05655); experiment: PRKCD DiscoveRx kinase panel; details: Compound concentration 1.0 uM
[23] = target: Vascular endothelial growth factor receptor 3 (Homo sapiens) (UniProt P35916); experiment: FLT4 DiscoveRx kinase panel; details: Compound concentration 1.0 uM
[24] = target: Serine/threonine-protein kinase PAK 1 (Homo sapiens) (UniProt Q13153); experiment: PAK1 DiscoveRx kinase panel; details: Compound concentration 1.0 uM
[25] = target: Vascular endothelial growth factor receptor 2 (Homo sapiens) (UniProt P35968); experiment: VEGFR2 DiscoveRx kinase panel; details: Compound concentration 1.0 uM
[26] = target: Serine/threonine-protein kinase Nek11 (Homo sapiens) (UniProt Q8NG66); experiment: NEK11 DiscoveRx kinase panel; details: Compound concentration 1.0 uM
[27] = target: TRAF2 and NCK-interacting protein kinase (Homo sapiens) (UniProt Q9UKE5); experiment: TNIK DiscoveRx kinase panel; details: Compound concentration 1.0 uM
[28] = target: Serine/threonine-protein kinase DCLK3 (Homo sapiens) (UniProt Q9C098); experiment: DCAMKL3 DiscoveRx kinase panel; details: Compound concentration 1.0 uM
[29] = target: Mitogen-activated protein kinase 1 (Homo sapiens) (UniProt P28482); experiment: ERK2 DiscoveRx kinase panel; details: Compound concentration 1.0 uM
[30] = target: Calcium/calmodulin-dependent protein kinase type IV (Homo sapiens) (UniProt Q16566); experiment: CAMK4 DiscoveRx kinase panel; details: Compound concentration 1.0 uM
[31] = target: Muscarinic acetylcholine receptor M4 (Homo sapiens) (UniProt P08173); details: Compound concentration 10.0 uM
[32] = target: Mitogen-activated protein kinase 9 (Homo sapiens) (UniProt P45984); experiment: JNK2 DiscoveRx kinase panel; details: Compound concentration 1.0 uM
[33] = target: Mitogen-activated protein kinase 10 (Homo sapiens) (UniProt P53779); experiment: JNK3 DiscoveRx kinase panel; details: Compound concentration 1.0 uM
[34] = test system: SUM149PT; experiment: SUM-149 cell line Proliferation assay; format: functional, Homo sapiens; details: time 4 day
[35] = species on record: Rattus norvegicus; experiment: GABAA, Ro-15-1788, Hippocampus Eurofins-Panlabs radioligand binding assay; design: ligand concentration 1 nM; details: Compound concentration 10.0 uM
[36] = target: 5-hydroxytryptamine receptor 5A (Homo sapiens) (UniProt P47898); details: Compound concentration 10.0 uM
[37] = target: Protein kinase C theta type (Homo sapiens) (UniProt Q04759); experiment: PRKCQ DiscoveRx kinase panel; details: Compound concentration 1.0 uM
[38] = target: Phosphorylase b kinase gamma catalytic chain, skeletal muscle/heart isoform (Homo sapiens) (UniProt Q16816); experiment: PHKG1 DiscoveRx kinase panel; details: Compound concentration 1.0 uM
[39] = target: Sodium-dependent dopamine transporter (Homo sapiens, UniProt Q01959); details: Compound concentration 10.0 uM
[40] = target: Mitogen-activated protein kinase kinase kinase kinase 5 (Homo sapiens) (UniProt Q9Y4K4); experiment: MAP4K5 DiscoveRx kinase panel; details: Compound concentration 1.0 uM
[41] = target: Serine/threonine-protein kinase 35 (Homo sapiens) (UniProt Q8TDR2); experiment: STK35 DiscoveRx kinase panel; details: Compound concentration 1.0 uM
[42] = target: C-X-C chemokine receptor type 2 (Homo sapiens) (UniProt P25025); experiment: Chemokine CXCR2 (IL-8RB) Eurofins-Panlabs radioligand binding assay; details: Compound concentration 10.0 uM
[43] = species on record: Homo sapiens; experiment: Inhibition of Phosphodiesterase PDE4 at compound concentration of 10.0 uM in the Eurofins-Panlabs enzyme assay (Eurofins_assay_154000); format: protein assay; design: substrate with concentration 1.01 uM [3 H]cAMP + cAMP, incubation time 20 min, incubation temperature 25 C; details: Compound concentration 10.0 uM
[44] = target: Homeodomain-interacting protein kinase 2 (Homo sapiens) (UniProt Q9H2X6); experiment: HIPK2 DiscoveRx kinase panel; details: Compound concentration 1.0 uM
[45] = target: D(2) dopamine receptor (Homo sapiens) (UniProt P14416); details: Compound concentration 10.0 uM
[46] = target: Testis-specific serine/threonine-protein kinase 3 (Homo sapiens) (UniProt Q96PN8); experiment: TSSK3 DiscoveRx kinase panel; details: Compound concentration 1.0 uM
[47] = target: Tyrosine-protein kinase ABL1 (Homo sapiens) (UniProt P00519); experiment: ABL1-nonphosphorylated DiscoveRx kinase panel; details: Compound concentration 1.0 uM

Sequence of Serine/threonine-protein kinase DCLK3 (Homo sapiens) (Q9C098 whole entry): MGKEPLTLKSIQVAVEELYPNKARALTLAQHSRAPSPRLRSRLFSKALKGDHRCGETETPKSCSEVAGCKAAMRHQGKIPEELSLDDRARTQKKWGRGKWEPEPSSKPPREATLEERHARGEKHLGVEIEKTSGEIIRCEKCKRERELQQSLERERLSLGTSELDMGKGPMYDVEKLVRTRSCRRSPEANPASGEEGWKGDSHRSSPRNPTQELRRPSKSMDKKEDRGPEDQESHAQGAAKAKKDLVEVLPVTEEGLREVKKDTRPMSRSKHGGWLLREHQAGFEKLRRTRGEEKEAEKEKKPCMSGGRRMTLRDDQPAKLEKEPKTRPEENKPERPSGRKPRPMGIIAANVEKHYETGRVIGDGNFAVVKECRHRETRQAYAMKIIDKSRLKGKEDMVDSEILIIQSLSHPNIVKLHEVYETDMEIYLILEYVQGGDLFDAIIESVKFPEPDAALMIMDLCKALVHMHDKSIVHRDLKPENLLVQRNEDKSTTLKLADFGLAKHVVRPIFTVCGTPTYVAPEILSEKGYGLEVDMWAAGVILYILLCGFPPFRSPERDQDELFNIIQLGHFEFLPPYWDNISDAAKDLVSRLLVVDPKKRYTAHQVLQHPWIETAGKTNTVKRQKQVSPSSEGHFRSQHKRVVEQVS
Sequence of Protein kinase C delta type (Homo sapiens) (Q05655 whole entry, looked up): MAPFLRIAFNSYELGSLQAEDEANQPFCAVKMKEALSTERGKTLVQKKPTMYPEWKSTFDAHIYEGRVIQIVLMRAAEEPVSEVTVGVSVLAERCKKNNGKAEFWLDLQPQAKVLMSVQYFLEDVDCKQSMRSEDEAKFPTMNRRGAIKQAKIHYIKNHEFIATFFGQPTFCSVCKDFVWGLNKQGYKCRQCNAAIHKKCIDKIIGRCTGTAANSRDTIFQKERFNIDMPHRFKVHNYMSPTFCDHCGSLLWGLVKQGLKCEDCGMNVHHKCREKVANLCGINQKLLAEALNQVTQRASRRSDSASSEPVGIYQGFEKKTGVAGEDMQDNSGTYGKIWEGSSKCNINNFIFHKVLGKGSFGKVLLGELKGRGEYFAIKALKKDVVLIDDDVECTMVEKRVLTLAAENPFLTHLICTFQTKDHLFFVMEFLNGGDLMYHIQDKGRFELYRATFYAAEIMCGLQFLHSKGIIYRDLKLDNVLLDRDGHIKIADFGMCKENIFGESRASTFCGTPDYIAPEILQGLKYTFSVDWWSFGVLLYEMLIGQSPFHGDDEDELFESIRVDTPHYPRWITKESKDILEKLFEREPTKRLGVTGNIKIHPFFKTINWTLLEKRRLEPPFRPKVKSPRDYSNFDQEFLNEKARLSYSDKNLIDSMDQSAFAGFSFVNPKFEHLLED
Sequence of 5-hydroxytryptamine receptor 2B (Homo sapiens) (P41595 whole entry): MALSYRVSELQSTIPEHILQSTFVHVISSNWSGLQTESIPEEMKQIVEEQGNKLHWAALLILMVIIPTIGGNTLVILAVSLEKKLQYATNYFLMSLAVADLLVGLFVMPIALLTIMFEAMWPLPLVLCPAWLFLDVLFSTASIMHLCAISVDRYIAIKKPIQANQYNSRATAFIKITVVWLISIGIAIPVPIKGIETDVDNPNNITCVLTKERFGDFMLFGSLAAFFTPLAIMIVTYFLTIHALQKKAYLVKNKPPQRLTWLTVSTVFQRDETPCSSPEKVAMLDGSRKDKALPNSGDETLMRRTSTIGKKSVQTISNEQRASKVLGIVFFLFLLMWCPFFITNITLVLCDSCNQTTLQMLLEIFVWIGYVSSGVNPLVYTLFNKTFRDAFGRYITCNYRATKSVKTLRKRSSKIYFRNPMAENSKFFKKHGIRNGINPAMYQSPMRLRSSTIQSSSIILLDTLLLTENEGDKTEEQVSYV
Sequence of Macrophage-stimulating protein receptor (Homo sapiens) (Q04912 25-304 limits assumed): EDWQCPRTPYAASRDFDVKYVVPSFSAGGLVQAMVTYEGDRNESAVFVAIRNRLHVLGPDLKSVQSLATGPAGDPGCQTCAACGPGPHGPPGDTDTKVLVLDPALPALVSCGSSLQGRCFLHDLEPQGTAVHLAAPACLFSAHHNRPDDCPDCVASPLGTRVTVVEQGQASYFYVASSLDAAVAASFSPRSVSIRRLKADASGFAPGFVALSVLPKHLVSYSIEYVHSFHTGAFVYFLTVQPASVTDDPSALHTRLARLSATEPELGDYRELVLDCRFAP
Sequence of Macrophage-stimulating protein receptor (Homo sapiens) (Q04912 310-1400 limits assumed): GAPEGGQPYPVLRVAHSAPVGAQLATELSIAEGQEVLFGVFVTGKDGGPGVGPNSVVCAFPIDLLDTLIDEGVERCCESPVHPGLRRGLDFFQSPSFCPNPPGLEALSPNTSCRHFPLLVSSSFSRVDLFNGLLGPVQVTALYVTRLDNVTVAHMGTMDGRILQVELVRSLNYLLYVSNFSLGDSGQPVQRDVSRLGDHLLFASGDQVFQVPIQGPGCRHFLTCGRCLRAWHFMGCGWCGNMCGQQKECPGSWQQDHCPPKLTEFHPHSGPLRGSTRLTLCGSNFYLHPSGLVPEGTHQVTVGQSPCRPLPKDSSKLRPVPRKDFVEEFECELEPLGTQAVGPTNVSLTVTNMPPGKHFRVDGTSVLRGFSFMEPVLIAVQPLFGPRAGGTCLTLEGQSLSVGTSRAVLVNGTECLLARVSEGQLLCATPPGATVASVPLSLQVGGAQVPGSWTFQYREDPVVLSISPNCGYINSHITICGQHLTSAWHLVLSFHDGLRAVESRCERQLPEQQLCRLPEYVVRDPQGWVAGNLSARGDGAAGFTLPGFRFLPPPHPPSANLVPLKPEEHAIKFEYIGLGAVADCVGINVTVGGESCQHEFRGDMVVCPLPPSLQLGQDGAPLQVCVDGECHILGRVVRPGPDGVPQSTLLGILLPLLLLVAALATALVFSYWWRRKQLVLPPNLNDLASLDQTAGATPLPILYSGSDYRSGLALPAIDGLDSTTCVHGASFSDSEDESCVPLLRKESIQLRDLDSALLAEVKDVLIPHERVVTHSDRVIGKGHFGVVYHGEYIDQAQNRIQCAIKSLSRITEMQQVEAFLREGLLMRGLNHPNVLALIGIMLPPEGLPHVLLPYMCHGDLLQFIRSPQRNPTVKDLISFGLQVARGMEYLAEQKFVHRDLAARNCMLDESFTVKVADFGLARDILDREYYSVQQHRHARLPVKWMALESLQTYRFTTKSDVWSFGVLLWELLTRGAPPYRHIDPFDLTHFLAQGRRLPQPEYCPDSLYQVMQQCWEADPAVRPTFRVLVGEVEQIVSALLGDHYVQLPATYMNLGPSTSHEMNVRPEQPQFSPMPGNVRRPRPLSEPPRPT
Sequence of Mitogen-activated protein kinase 10 (Homo sapiens) (P53779 whole entry): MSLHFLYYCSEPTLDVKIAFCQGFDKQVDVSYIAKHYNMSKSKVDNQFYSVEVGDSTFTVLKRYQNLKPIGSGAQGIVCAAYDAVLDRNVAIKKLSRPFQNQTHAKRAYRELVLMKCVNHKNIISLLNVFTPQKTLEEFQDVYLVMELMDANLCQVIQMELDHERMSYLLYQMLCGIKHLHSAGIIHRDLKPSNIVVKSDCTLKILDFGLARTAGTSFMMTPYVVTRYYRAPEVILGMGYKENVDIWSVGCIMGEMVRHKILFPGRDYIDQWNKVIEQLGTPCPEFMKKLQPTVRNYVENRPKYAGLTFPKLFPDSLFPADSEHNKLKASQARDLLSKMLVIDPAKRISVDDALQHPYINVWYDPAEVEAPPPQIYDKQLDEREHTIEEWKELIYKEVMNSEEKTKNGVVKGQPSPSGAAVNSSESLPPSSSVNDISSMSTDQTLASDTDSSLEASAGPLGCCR
Sequence of 5-hydroxytryptamine receptor 5A (Homo sapiens) (P47898 whole entry): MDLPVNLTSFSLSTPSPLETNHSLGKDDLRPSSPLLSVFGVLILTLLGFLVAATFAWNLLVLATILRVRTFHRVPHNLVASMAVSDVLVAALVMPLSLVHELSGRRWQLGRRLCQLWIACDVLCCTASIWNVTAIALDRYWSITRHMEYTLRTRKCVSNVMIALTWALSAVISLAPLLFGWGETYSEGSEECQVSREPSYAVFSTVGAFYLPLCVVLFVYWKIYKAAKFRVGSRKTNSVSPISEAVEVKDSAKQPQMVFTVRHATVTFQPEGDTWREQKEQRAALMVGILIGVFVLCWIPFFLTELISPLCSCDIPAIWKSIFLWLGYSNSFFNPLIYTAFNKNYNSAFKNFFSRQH
Sequence of Mitogen-activated protein kinase 9 (Homo sapiens) (P45984 whole entry, looked up): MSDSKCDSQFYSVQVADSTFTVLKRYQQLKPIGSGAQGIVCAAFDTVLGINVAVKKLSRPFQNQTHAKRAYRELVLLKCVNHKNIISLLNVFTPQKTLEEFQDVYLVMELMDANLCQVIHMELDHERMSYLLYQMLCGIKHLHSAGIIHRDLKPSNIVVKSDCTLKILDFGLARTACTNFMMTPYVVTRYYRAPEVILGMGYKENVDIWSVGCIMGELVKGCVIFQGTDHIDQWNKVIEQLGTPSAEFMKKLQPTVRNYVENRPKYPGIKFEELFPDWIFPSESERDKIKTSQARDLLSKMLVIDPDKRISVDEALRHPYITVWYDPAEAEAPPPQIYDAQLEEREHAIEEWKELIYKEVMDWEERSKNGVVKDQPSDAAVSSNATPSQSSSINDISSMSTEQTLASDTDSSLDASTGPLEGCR
Sequence of Calcium/calmodulin-dependent protein kinase type IV (Homo sapiens) (Q16566 whole entry): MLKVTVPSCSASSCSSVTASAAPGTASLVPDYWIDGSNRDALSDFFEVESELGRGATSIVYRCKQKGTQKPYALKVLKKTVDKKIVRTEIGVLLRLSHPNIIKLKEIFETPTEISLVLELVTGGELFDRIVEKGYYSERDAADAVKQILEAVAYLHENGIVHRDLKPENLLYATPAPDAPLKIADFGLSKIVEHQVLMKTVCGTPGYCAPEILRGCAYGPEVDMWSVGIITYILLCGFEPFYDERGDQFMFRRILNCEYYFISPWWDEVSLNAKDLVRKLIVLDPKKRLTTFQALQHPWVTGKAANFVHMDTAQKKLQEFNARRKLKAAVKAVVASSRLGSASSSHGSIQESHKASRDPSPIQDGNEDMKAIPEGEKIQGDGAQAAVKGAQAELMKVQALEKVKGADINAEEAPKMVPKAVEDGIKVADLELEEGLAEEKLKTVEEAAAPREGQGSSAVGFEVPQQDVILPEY

SMILES: COc1cnccc1Nc1nc(-c2nn(Cc3c(F)cc(OCCO)cc3F)c3ccccc23)ncc1OC
- inhibition [1]: 11%
- inhibition [2]: -6%
- residual activity [3]: 100%
- residual activity [4]: 80%
- inhibition [5]: 24.9%
- residual activity [6]: 100%
- residual activity [7]: 91%
- residual activity [8]: 100%
- inhibition [9]: 39.3%
- residual activity [10]: 79%
- inhibition [11]: 1.96%
- inhibition [12]: -1%
- residual activity [13]: 100%
- residual activity [14]: 100%
- inhibition [15]: 15.2%
- residual activity [16]: 100%
- residual activity [17]: 77%
- inhibition [18]: 28%
- residual activity [19]: 100%
- residual activity [20]: 100%
- residual activity [21]: 100%
- residual activity [22]: 80%
- residual activity [23]: 82%
- residual activity [24]: 100%
- residual activity [25]: 100%
- residual activity [26]: 96%
- residual activity [27]: 100%
- residual activity [28]: 100%
- residual activity [29]: 93%
- residual activity [30]: 68%
- inhibition [31]: 8%
- residual activity [32]: 39%
- residual activity [33]: 56%
- Cell Proliferation IC50 [34]: 0.64 µM
- inhibition [35]: 22%
- inhibition [36]: -6.97%
- residual activity [37]: 77%
- residual activity [38]: 100%
- inhibition [39]: 60.2%
- residual activity [40]: 81%
- residual activity [41]: 99%
- inhibition [42]: -3%
- inhibition [43]: 52%
- residual activity [44]: 100%
- inhibition [45]: 4%
- residual activity [46]: 90%
- residual activity [47]: 87%
